Results as given in the NIST ThermoML archive (doi:10.1021/acs.jced.6b00657).

Experiment: xn = mol fraction of the nth substance listed
Settings: Liquid, absorption in thin film, x2 = 0

CCCCCCCCn1cc[n+](C)c1.N#CC(=C=[N-])C#N [1-methyl-3-octylimidazolium tricyanomethanide] + O=C=O
Settings | binary diffusion coefficient [m2/s]
298.15 K, 94 kPa | 1.5e-10
298.15 K, 194 kPa | 1.9e-10
298.15 K, 293 kPa | 1.8e-10
298.15 K, 393 kPa | 2e-10
298.15 K, 593 kPa | 2e-10
308.15 K, 194 kPa | 2.3e-10
308.15 K, 294 kPa | 2.4e-10
308.15 K, 393 kPa | 2.5e-10
308.15 K, 493 kPa | 2.5e-10
308.15 K, 593 kPa | 2.5e-10
308.15 K, 693 kPa | 2.7e-10
308.15 K, 793 kPa | 2.7e-10
308.15 K, 893 kPa | 3e-10
308.15 K, 992 kPa | 3.1e-10
308.15 K, 1093 kPa | 2.7e-10
308.15 K, 1193 kPa | 2.5e-10
308.15 K, 1293 kPa | 3.2e-10
308.15 K, 1392 kPa | 3.3e-10
308.15 K, 1492 kPa | 3.5e-10
308.15 K, 1593 kPa | 3.4e-10
308.15 K, 1693 kPa | 3.8e-10
308.15 K, 1793 kPa | 4e-10
308.15 K, 1892 kPa | 3.9e-10
308.15 K, 1993 kPa | 3.9e-10
323.15 K, 94 kPa | 3.2e-10
323.15 K, 194 kPa | 3.4e-10
323.15 K, 293 kPa | 3.5e-10
323.15 K, 393 kPa | 3.3e-10
323.15 K, 493 kPa | 3.3e-10
323.15 K, 593 kPa | 3.6e-10
323.15 K, 693 kPa | 3.9e-10
323.15 K, 793 kPa | 4e-10
323.15 K, 893 kPa | 3.9e-10
323.15 K, 992 kPa | 3.9e-10
323.15 K, 1093 kPa | 3.8e-10
323.15 K, 1193 kPa | 3.6e-10
323.15 K, 1292 kPa | 3.9e-10
323.15 K, 1393 kPa | 4e-10
323.15 K, 1493 kPa | 4.2e-10
323.15 K, 1593 kPa | 4.1e-10
323.15 K, 1692 kPa | 4.6e-10
323.15 K, 1793 kPa | 3.9e-10
323.15 K, 1892 kPa | 4.5e-10
323.15 K, 1993 kPa | 4.4e-10
338.25 K, 94 kPa | 4.3e-10
338.25 K, 194 kPa | 4.1e-10
338.25 K, 294 kPa | 4.5e-10
338.25 K, 394 kPa | 4.4e-10
338.25 K, 494 kPa | 4.2e-10
338.25 K, 593 kPa | 4.8e-10
338.25 K, 692 kPa | 4.3e-10
338.25 K, 794 kPa | 4.7e-10
338.25 K, 892 kPa | 4.2e-10
338.25 K, 993 kPa | 3.8e-10
338.25 K, 1093 kPa | 5e-10
338.25 K, 1193 kPa | 5.1e-10
338.25 K, 1292 kPa | 5e-10
338.25 K, 1392 kPa | 4.9e-10
338.25 K, 1493 kPa | 5e-10
338.25 K, 1692 kPa | 6e-10
338.25 K, 1793 kPa | 5.9e-10
338.25 K, 1892 kPa | 5.5e-10
338.25 K, 1993 kPa | 5.2e-10
353.25 K, 494 kPa | 5.7e-10
353.25 K, 594 kPa | 5.5e-10
353.25 K, 993 kPa | 6e-10
353.25 K, 1093 kPa | 6.7e-10
353.25 K, 1193 kPa | 5.1e-10
353.25 K, 1293 kPa | 4.7e-10
353.25 K, 1392 kPa | 6.5e-10
353.25 K, 1493 kPa | 5.6e-10
353.25 K, 1793 kPa | 7.6e-10
353.25 K, 1893 kPa | 5.8e-10

CCCCCCCn1cc[n+](C)c1.N#C[C-](C#N)C#N [1-heptyl-3-methylimidazolium tricyanomethanide] + O=C=O
Settings | binary diffusion coefficient [m2/s]
298.15 K, 93 kPa | 2e-10
298.15 K, 193 kPa | 1.6e-10
298.15 K, 293 kPa | 1.7e-10
298.15 K, 393 kPa | 1.9e-10
298.15 K, 492 kPa | 2e-10
298.15 K, 692 kPa | 2.3e-10
298.15 K, 792 kPa | 2.4e-10
298.15 K, 893 kPa | 2.5e-10
298.15 K, 993 kPa | 2.7e-10
298.15 K, 1193 kPa | 3.1e-10
298.15 K, 1293 kPa | 2.9e-10
298.15 K, 1392 kPa | 2.9e-10
298.15 K, 1493 kPa | 3.1e-10
298.15 K, 1693 kPa | 2.8e-10
298.15 K, 1792 kPa | 3.1e-10
298.15 K, 1893 kPa | 3.6e-10
298.15 K, 1993 kPa | 3.5e-10
308.15 K, 94 kPa | 2.6e-10
308.15 K, 194 kPa | 2.3e-10
308.15 K, 294 kPa | 2.4e-10
308.15 K, 394 kPa | 2.8e-10
308.15 K, 493 kPa | 2.8e-10
308.15 K, 593 kPa | 2.9e-10
308.15 K, 693 kPa | 2.7e-10
308.15 K, 993 kPa | 3e-10
308.15 K, 1093 kPa | 3.2e-10
308.15 K, 1192 kPa | 3.4e-10
308.15 K, 1293 kPa | 3.3e-10
308.15 K, 1392 kPa | 3.5e-10
308.15 K, 1493 kPa | 3.6e-10
308.15 K, 1893 kPa | 3.9e-10
308.15 K, 1993 kPa | 4.2e-10
323.15 K, 95 kPa | 3.2e-10
323.15 K, 195 kPa | 4e-10
323.15 K, 294 kPa | 3.8e-10
323.15 K, 394 kPa | 3.5e-10
323.15 K, 494 kPa | 3.8e-10
323.15 K, 594 kPa | 3.9e-10
323.15 K, 692 kPa | 3.2e-10
323.15 K, 793 kPa | 4e-10
323.15 K, 893 kPa | 3.5e-10
323.15 K, 993 kPa | 4.4e-10
323.15 K, 1093 kPa | 4.2e-10
323.15 K, 1192 kPa | 4.4e-10
323.15 K, 1293 kPa | 3.2e-10
338.25 K, 95 kPa | 4.5e-10
338.25 K, 196 kPa | 4.4e-10
338.25 K, 295 kPa | 4.3e-10
338.25 K, 394 kPa | 5.3e-10
338.25 K, 493 kPa | 4.7e-10
338.25 K, 594 kPa | 5.2e-10
338.25 K, 793 kPa | 6.1e-10
338.25 K, 993 kPa | 5.8e-10
338.25 K, 1093 kPa | 5.6e-10
338.25 K, 1292 kPa | 6.5e-10
338.25 K, 1392 kPa | 5.6e-10
338.25 K, 1793 kPa | 5.8e-10
338.25 K, 1893 kPa | 5.6e-10
338.25 K, 1993 kPa | 6.5e-10
353.25 K, 494 kPa | 6.4e-10
353.25 K, 594 kPa | 6.5e-10
353.25 K, 693 kPa | 5.4e-10
353.25 K, 793 kPa | 6e-10
353.25 K, 894 kPa | 6.6e-10
353.25 K, 994 kPa | 7.5e-10
353.25 K, 1094 kPa | 5.7e-10
353.25 K, 1193 kPa | 7.1e-10
